# Laboratory results published in patent publication US9353091B2 (priority 2009, dated 2016).
# Assays:
# [1] = system: genotype 1a-H77 subgenomic replicon cell line; experiment: HCV Polymerase Replicon Assay (genotype 1a-H77, luciferase reporter); assay type: cell-based; details: Hepatitis C virus, 72 h, 1a-H77 replicon, three days
# [2] = system: genotype 1b-Con1 subgenomic replicon cell line; experiment: HCV Polymerase Replicon Assay (genotype 1b-Con1, luciferase reporter); assay type: cell-based; details: Hepatitis C virus, 72 h, 1b-Con1 replicon, three days
# [3] = biological target: T1, HCV polymerase 1B (Δ21 NS5B) (Hepatitis C virus genotype 1b, UniProt P26663); experiment: HCV Polymerase Inhibition Assay (1b); assay type: biochemical
# T1 construct: 20 to 50 nM Δ21 NS5B
# Experimental: (§1) Reaction volume was 50 μL. The reaction was terminated by the addition of 1 volume of 4 mM spermine in 10 mM Tris-Cl pH 8.0, 1 mM EDTA. After incubation for at least 15 minutes at room temperature, the precipitated RNA was captured by filtering through a GF/B filter (Millipore) in a 96 well format. The filter plate was washed three times with 200 μL, each of 2 mM spermine, 10 mM Tris-Cl pH 8.0, 1 mM EDTA, and 2 times with ethanol. After air-drying, 30 μL, of Microscint 20 scintillation cocktail (Packard) was added to each well, and the retained cpm were determined by scintillation counting. […] Retained cpm were plotted vs. inhibitor concentration and fit to equation 1 using non-linear regression (ref. 1) to obtain the IC50 values: Retained cpm=A[sqrt{(IC50+It−Et)^2+4*IC50*Et}−(IC50+It−Et)]
# (§2) Ref. Morrison, J. F. and S. R. Stone. 1985. Approaches to the study and analysis of the inhibition of enzymes by slow- and tight-binding inhibitors. Comments Mol. Cell. Biophys. 2: 347-368.
# (§3) The sequence of the template RNA used was: 5′-[…] […] […] […] […] […] […] […] […] […] […] […] […] […] […] […] […]-3′ (SEQ ID NO: 1)
# [4] = biological target: T2, HCV polymerase 1A (Δ21 NS5B) (Hepatitis C virus genotype 1a, UniProt P27958); experiment: HCV Polymerase Inhibition Assay (1a); assay type: biochemical
# T2 construct: 20 to 50 nM Δ21 NS5B
# Experimental: as §1, §2, §3
# T2 sequence (P27958 2421-2990, stated change not applied): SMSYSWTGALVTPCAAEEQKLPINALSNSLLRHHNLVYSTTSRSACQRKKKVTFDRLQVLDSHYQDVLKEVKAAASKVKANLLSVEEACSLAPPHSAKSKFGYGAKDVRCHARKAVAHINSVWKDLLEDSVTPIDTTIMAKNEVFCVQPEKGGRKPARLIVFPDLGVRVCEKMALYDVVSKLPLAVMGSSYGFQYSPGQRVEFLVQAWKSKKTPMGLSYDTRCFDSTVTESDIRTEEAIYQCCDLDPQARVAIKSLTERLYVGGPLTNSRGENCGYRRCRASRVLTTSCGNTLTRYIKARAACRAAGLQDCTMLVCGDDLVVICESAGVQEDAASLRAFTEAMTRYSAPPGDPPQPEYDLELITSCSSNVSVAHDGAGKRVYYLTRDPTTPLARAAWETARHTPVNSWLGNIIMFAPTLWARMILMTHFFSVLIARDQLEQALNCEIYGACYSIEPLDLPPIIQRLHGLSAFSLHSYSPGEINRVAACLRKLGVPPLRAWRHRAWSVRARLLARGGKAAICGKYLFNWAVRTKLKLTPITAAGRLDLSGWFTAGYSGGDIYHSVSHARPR
# T1 sequence (P26663 2420-2989, stated change not applied): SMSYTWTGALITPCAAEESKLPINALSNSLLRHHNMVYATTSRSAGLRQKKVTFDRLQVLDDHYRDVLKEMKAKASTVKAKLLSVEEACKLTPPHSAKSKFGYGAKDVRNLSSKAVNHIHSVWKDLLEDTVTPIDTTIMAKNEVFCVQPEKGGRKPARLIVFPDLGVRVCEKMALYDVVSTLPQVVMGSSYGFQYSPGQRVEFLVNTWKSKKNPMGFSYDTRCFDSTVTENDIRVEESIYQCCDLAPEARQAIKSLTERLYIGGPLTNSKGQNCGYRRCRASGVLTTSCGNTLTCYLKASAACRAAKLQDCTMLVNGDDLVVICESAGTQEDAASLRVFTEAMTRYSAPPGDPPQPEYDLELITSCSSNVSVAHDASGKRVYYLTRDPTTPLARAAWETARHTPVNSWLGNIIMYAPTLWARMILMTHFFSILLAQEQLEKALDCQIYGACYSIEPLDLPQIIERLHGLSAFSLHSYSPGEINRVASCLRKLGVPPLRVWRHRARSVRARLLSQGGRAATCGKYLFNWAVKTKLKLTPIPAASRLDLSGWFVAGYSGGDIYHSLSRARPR
SMILES,EC50 [1] [nM],EC50 [2] [nM],IC50 [3] [nM],IC50 [4] [nM]
"COc1c(-c2ccc3cc(NS(C)(=O)=O)ccc3c2)cc(N2CC(=O)NC2=O)cc1C(C)(C)C [compound 16, N-(6-(3-tert-butyl-5-(2,4-dioxoimidazolidin-1-yl)-2-methoxyphenyl)naphthalen-2-yl)methanesulfonamide]",100 to 1000,100 to 1000,10 to 100,10 to 100
"CCOC(=O)CCNC(=O)Nc1cc(-c2ccc3cc(NS(C)(=O)=O)ccc3c2)c(OC)c(C(C)(C)C)c1 [compound 21, ethyl 3-(3-(3-tert-butyl-4-methoxy-5-(6-(methylsulfonamido)naphthalen-2-yl)phenyl)ureido)propanoate]",100 to 1000,100 to 1000,> 1000,100 to 1000
"CCNC(=O)Nc1cc(-c2ccc3cc(NS(C)(=O)=O)ccc3c2)c(OC)c(C(C)(C)C)c1 [compound 22, N-(6-(3-tert-butyl-5-(3-ethylureido)-2-methoxyphenyl)naphthalen-2-yl)methanesulfonamide]",100 to 1000,100 to 1000,100 to 1000,100 to 1000
"COc1c(-c2ccc3cc(NS(C)(=O)=O)ccc3c2)cc(NC(=O)CCNC(=O)OC(C)(C)C)cc1C(C)(C)C [compound 23, tert-butyl 3-(3-tert-butyl-4-methoxy-5-(6-(methylsulfonamido)naphthalen-2-yl)phenylamino)-3-oxopropylcarbamate]",> 1000,> 1000,> 1000,100 to 1000
"COc1c(-c2ccc3cc(NS(C)(=O)=O)ccc3c2)cc(N2CCOC2=O)cc1C(C)(C)C [compound 25, N-(6-(3-tert-butyl-2-methoxy-5-(2-oxooxazolidin-3-yl)phenyl)naphthalen-2-yl)methanesulfonamide]",> 1000,> 1000,100 to 1000,100 to 1000
"COc1c(-c2ccc3cc(NS(C)(=O)=O)ccc3c2)cc(N2CCCNC2=O)cc1C(C)(C)C [compound 26, N-(6-(3-tert-butyl-2-methoxy-5-(2-oxotetrahydropyrimidin-1(2H)-yl)phenyl)naphthalen-2-yl)methanesulfonamide]",10 to 100,≤ 10,10 to 100,10 to 100
"COc1c(-c2ccc3cc(NS(C)(=O)=O)ccc3c2)cc(N2CCNC2=O)cc1C(C)(C)C [compound 27, N-(6-(3-tert-butyl-2-methoxy-5-(2-oxoimidazolidin-1-yl)phenyl)naphthalen-2-yl)methanesulfonamide]",100 to 1000,10 to 100,10 to 100,10 to 100
"COc1c(-c2ccc3cc(NS(C)(=O)=O)ccc3c2)cc(-c2c[nH]c(=O)[nH]c2=O)cc1C(C)(C)C [compound 28, N-(6-(3-tert-butyl-5-(2,4-dioxo-1,2,3,4-tetrahydropyrimidin-5-yl)-2-methoxyphenyl)naphthalen-2-yl)methanesulfonamide]",≤ 10,≤ 10,10 to 100,< 10
"COc1c(-c2ccc3cc(NS(C)(=O)=O)ccc3c2)cc(N2CCCC2=O)cc1C(C)(C)C [compound 29, N-(6-(3-tert-butyl-2-methoxy-5-(2-oxopyrrolidin-1-yl)phenyl)naphthalen-2-yl)methanesulfonamide]",100 to 1000,10 to 100,10 to 100,10 to 100
"COc1c(-c2ccc3cc(NS(C)(=O)=O)ccc3c2)cc(-n2ccccc2=O)cc1C(C)(C)C [compound 30, N-(6-(3-tert-butyl-2-methoxy-5-(2-oxopyridin-1(2H)-yl)phenyl)naphthalen-2-yl)methanesulfonamide]",100 to 1000,10 to 100,10 to 100,10 to 100
"CC(C)(C)c1cc(-c2c[nH]c(=O)[nH]c2=O)cc(-c2ccc3cc(NS(C)(=O)=O)ccc3c2)c1N [compound 33, N-(6-(2-amino-3-tert-butyl-5-(2,4-dioxo-1,2,3,4-tetrahydropyrimidin-5-yl)phenyl)naphthalen-2-yl)methanesulfonamide]",100 to 1000,10 to 100,10 to 100,< 10
"CC(C)(C)c1cc(-c2c[nH]c(=O)[nH]c2=O)cc(-c2ccc3cc(NS(C)(=O)=O)ccc3c2)c1I [compound 34, N-(6-(3-tert-butyl-5-(2,4-dioxo-1,2,3,4-tetrahydropyrimidin-5-yl)-2-iodophenyl)naphthalen-2-yl)methanesulfonamide]",100 to 1000,10 to 100,10 to 100,< 10
"C=Cc1c(-c2ccc3cc(NS(C)(=O)=O)ccc3c2)cc(-c2c[nH]c(=O)[nH]c2=O)cc1C(C)(C)C [compound 35, N-(6-(3-tert-butyl-5-(2,4-dioxo-1,2,3,4-tetrahydropyrimidin-5-yl)-2-vinylphenyl)naphthalen-2-yl)methanesulfonamide]",10 to 100,≤ 10,< 10,< 10
"CCc1c(-c2ccc3cc(NS(C)(=O)=O)ccc3c2)cc(-c2c[nH]c(=O)[nH]c2=O)cc1C(C)(C)C [compound 36, N-(6-(3-tert-butyl-5-(2,4-dioxo-1,2,3,4-tetrahydropyrimidin-5-yl)-2-ethylphenyl)naphthalen-2-yl)methanesulfonamide]",100 to 1000,100 to 1000,10 to 100,10 to 100
"COc1c(-c2ccc3cc(NS(C)(=O)=O)ccc3c2)cc(-c2c[nH]c(=O)[nH]c2=O)cc1C(F)(F)C(F)(F)F [compound 37, N-(6-(5-(2,4-dioxo-1,2,3,4-tetrahydropyrimidin-5-yl)-2-methoxy-3-(perfluoroethyl)phenyl)naphthalen-2-yl)methanesulfonamide]",100 to 1000,10 to 100,10 to 100,< 10
"COc1c(-c2ccoc2)cc(-c2c[nH]c(=O)[nH]c2=O)cc1-c1ccc2cc(NS(C)(=O)=O)ccc2c1 [compound 38, N-(6-(5-(2,4-dioxo-1,2,3,4-tetrahydropyrimidin-5-yl)-3-(furan-3-yl)-2-methoxyphenyl)naphthalen-2-yl)methanesulfonamide]",100 to 1000,10 to 100,10 to 100,< 10
"COc1c(-c2ccc3cc(NS(C)(=O)=O)ccc3c2)cc(-c2c[nH]c(=O)[nH]c2=O)cc1-c1cccs1 [compound 39, N-(6-(5-(2,4-dioxo-1,2,3,4-tetrahydropyrimidin-5-yl)-2-methoxy-3-(thiophen-2-yl)phenyl)naphthalen-2-yl)methanesulfonamide]",10 to 100,≤ 10,< 10,< 10
"COc1c(-c2ccc3cc(NS(C)(=O)=O)ccc3c2)cc(-c2c[nH]c(=O)[nH]c2=O)cc1-c1ccco1 [compound 40, N-(6-(5-(2,4-dioxo-1,2,3,4-tetrahydropyrimidin-5-yl)-3-(furan-2-yl)-2-methoxyphenyl)naphthalen-2-yl)methanesulfonamide]",100 to 1000,10 to 100,< 10,< 10
"COc1c(-c2ccc3cc(NS(C)(=O)=O)ccc3c2)cc(-c2c[nH]c(=O)[nH]c2=O)cc1-c1cnn(C)c1 [compound 41, N-(6-(5-(2,4-dioxo-1,2,3,4-tetrahydropyrimidin-5-yl)-2-methoxy-3-(1-methyl-1H-pyrazol-4-yl)phenyl)naphthalen-2-yl)methanesulfonamide]",> 1000,> 1000,100 to 1000,100 to 1000
"COc1c(-c2ccc3cc(NS(C)(=O)=O)ccc3c2)cc(-c2c[nH]c(=O)[nH]c2=O)cc1-c1ccc(C)o1 [compound 42, N-(6-(5-(2,4-dioxo-1,2,3,4-tetrahydropyrimidin-5-yl)-2-methoxy-3-(5-methylfuran-2-yl)phenyl)naphthalen-2-yl)methanesulfonamide]",10 to 100,≤ 10,10 to 100,< 10
"COc1c(-c2ccsc2)cc(-c2c[nH]c(=O)[nH]c2=O)cc1-c1ccc2cc(NS(C)(=O)=O)ccc2c1 [compound 43, N-(6-(5-(2,4-dioxo-1,2,3,4-tetrahydropyrimidin-5-yl)-2-methoxy-3-(thiophen-3-yl)phenyl)naphthalen-2-yl)methanesulfonamide]",100 to 1000,10 to 100,< 10,< 10
"COc1c(-c2ccc3c(c2)CC=C3CNS(C)(=O)=O)cc(-c2c[nH]c(=O)[nH]c2=O)cc1-c1ccc(C)o1 [compound 44, N-((6-(5-(2,4-dioxo-1,2,3,4-tetrahydropyrimidin-5-yl)-2-methoxy-3-(5-methylfuran-2-yl)phenyl)-1H-inden-3-yl)methyl)methanesulfonamide]",100 to 1000,10 to 100,10 to 100,10 to 100
